The values below come from ChEMBL document CHEMBL1144096, “New phenanthrene derivatives from maxillaria densa(1)” (J Nat Prod, 1999).

pIC50: −log10 of the molar value.

The experiment concerns Ileum. Nature of the experiment: Inhibition of rat ileum contraction. The experiment is classed as functional, tissue-based.

In the case of `COc1ccc(Cc2nccc3cc(OC)c(OC)cc23)cc1OC` [PAPAVERINE], the pIC50 (as a rule, the IC50 on a negative log10 scale, so that one unit is a factor of ten) was 5.81.
